According to the supplement of paper PMC13380429:

How the values were obtained:
Conditions in all cases: 72 h
HepG2 [1] = assay: drug sensitivity score (DSS) for viability; higher = more toxic; extreme values may be limits of the assay
Caco-2 [2] = assay: as above
Vero E6 [3] = assay: as above
HepG2 [4] = assay: relative viability EC50 (midpoint between 100% and the lowest measured viability); higher = less toxic
Caco-2 [5] = assay: as above
Vero E6 [6] = assay: as above
HepG2 [7] = assay: cell viability relative to DMSO; higher = less toxic
Caco-2 [8] = assay: as above
Vero E6 [9] = assay: as above
U2OS [10] = assay: drug sensitivity score (DSS) for viability; higher = more toxic; extreme values may be limits of the assay
Calu-3 [11] = assay: as above
U2OS [12] = assay: cell viability relative to DMSO; higher = less toxic
Calu-3 [13] = assay: as above
Calu-3 [14] = assay: relative viability EC50 (midpoint between 100% and the lowest measured viability); higher = less toxic

SMILES	drug sensitivity score (HepG2 [1])	drug sensitivity score (Caco-2 [2])	drug sensitivity score (Vero E6 [3])	relative viability EC50 (HepG2 [4]) [µM]	relative viability EC50 (Caco-2 [5]) [µM]	relative viability EC50 (Vero E6 [6]) [µM]	cell viability (HepG2 [7]; 1 nM) [%]	cell viability (HepG2 [7]; 10 nM) [%]	cell viability (HepG2 [7]; 100 nM) [%]	cell viability (HepG2 [7]; 1000 nM) [%]	cell viability (HepG2 [7]; 10000 nM) [%]	cell viability (Caco-2 [8]; 1 nM) [%]	cell viability (Caco-2 [8]; 10 nM) [%]	cell viability (Caco-2 [8]; 100 nM) [%]	cell viability (Caco-2 [8]; 1000 nM) [%]	cell viability (Caco-2 [8]; 10000 nM) [%]	cell viability (Vero E6 [9]; 1 nM) [%]	cell viability (Vero E6 [9]; 10 nM) [%]	cell viability (Vero E6 [9]; 100 nM) [%]	cell viability (Vero E6 [9]; 1000 nM) [%]	cell viability (Vero E6 [9]; 10000 nM) [%]	drug sensitivity score (U2OS [10])	drug sensitivity score (Calu-3 [11])	cell viability (U2OS [12]; 1 nM) [%]	cell viability (U2OS [12]; 10 nM) [%]	cell viability (U2OS [12]; 100 nM) [%]	cell viability (U2OS [12]; 1000 nM) [%]	cell viability (U2OS [12]; 10000 nM) [%]	cell viability (Calu-3 [13]; 1 nM) [%]	cell viability (Calu-3 [13]; 10 nM) [%]	cell viability (Calu-3 [13]; 100 nM) [%]	cell viability (Calu-3 [13]; 1000 nM) [%]	cell viability (Calu-3 [13]; 10000 nM) [%]	relative viability EC50 (Calu-3 [14]) [µM]
NCCNC(=O)c1ccc(Cl)cn1 [lazabemide]	0	0	0	> 10	> 10	> 10	99.6	96.4	113	114	125	98.1	95.6	101	103	101	95.6	99.2	90.8	91	104													
CCCCC/N=c1\ccn(Cc2ccccc2)c2ccccc12	4.5	2	0	2.46		> 10	96.3	99.3	96	94.3	33.9	93.3	94.9	103	98.5	63	94.9	100	90.6	99.2	94.2	2.1	1.4	101	94.4	100	97.5	64.3	97	98.2	96.1	104	65.5	
Oc1cccc(-c2nc(N3CCOCC3)c3oc4ncccc4c3n2)c1 [PI-103]	5.3	13.1	11		0.14		98.8	104	99.7	70.9	62	100	96.9	81.2	42.4	49.9	98.3	96.2	87.9	50.5	53	5.6	5.1	103	100	97	69.4	76.6	105	95.1	81.9	84.1	53.6	
O=C(O)Cc1cc2ccccc2nc1C(=O)O [CCMQ]	0	0		> 10	> 10		107	110	95.6	109	96.9	106	111	103	98.2	98.4																		
COC(=O)[C@@H]1[C@H]2C[C@H]3c4[nH]c5ccccc5c4CCN3C[C@@H]2CC[C@@H]1O [yohimbine]	0.3		0	> 10		> 10	110	113	110	94.5	87.4						110	105	101	101	98.6		0						103	100	113	108	96.9	> 10
